Test results reported in patent publication US20120245161A1 (SANOFI, priority 2009, published 2012).
Where “and” joins values, the source holds several entries; their conditions need not be identical. Equal values may be shown once. Where a name gives a salt, the structure may show the parent alone. Read-outs that look alike come from different tables or passages of the source.

Target: T1, recombinant human beta tryptase (Homo sapiens, UniProt P20231)
T1 construct: made in house; host or cells: yeast cells
T1 sequence (P20231 31-275): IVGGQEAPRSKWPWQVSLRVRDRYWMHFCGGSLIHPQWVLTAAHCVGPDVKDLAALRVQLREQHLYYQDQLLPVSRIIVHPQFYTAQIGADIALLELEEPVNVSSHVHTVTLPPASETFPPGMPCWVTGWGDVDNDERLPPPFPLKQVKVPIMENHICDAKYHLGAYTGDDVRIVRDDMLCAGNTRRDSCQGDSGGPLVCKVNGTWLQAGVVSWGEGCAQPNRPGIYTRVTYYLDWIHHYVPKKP
Assay: beta-Tryptase inhibition, chromogenic enzyme assay (substrate S2366, read at 405 nm)
Type: biochemical
Source text: Inhibition of this catalytic activity may be measured by the in vitro enzyme assay and the cellular assay.
Tryptase inhibition activity is confirmed using either isolated human lung tryptase or recombinant human beta tryptase expressed in yeast cells. Essentially equivalent results are obtained using isolated native enzyme or the expressed enzyme. The assay procedure employs a 96 well microplate (Costar 3590) using L-pyroglutamyl-L-prolyl-L-arginine-para-nitroanilide (S2366: Quadratech) as substrate (essentially as described by McEuen et. al. Biochem Pharm, 1996, 52, pages 331-340). Assays are performed at room temperature using 0.5 mM substrate (2×Km) and the microplate is read on a microplate reader (Beckman Biomek Plate reader) at 405 nm wavelength.
Materials and Methods for Tryptase primary screen (Chromogenic assay)
S2366 (Stock solutions of 2.5 mM).
Purified recombinant beta Tryptase Stocks of 310 μg/mL. Protocol (Single point determination) • Add 60 μL of diluted substrate (final concentration of 500 μM in assay buffer) to each well • Add compound in duplicates, final concentration of 20 volume 20 • Add enzyme at a final concentration of 50 ng/mL in a volume of 20 • Total volume for each well is 100 • Agitate briefly to mix and incubate at room temp in the dark for 30 minutes • Read absorbencies at […] Each plate has the following controls: • Totals: 60 μL of substrate, 20 μL of buffer (with 0.2% final concentration of DMSO), • 20 μL of enzyme Non-specific: 60 μL of substrate, 40 μL of buffer (with 0.2% DMSO) Totals: 60 μL of substrate, 20 μL of buffer (No DMSO), 20 μL of enzyme Non-specific: 60 μL of substrate, 40 μL of buffer (No DMSO) Protocol (IC50 and Ki determination)
The protocol is essentially the same as above except that the compound is added in duplicates at the following final concentrations: 0.01, 0.03, 0.1, 0.3, 1, 3, 10 μM (All dilutions carried out manually). For every assay, whether single point or IC50 determination, a standard compound is used to derive IC50 for comparison. From the IC50 value, the Ki can be calculated using the following formula: Ki=IC50/(1+[Substrate]/Km).

[1] = Tryptase Ki (nM), Ki calculated from IC50: Ki=IC50/(1+[Substrate]/Km), 0.5 mM substrate, room temperature
[2] = Ki calculated from IC50: Ki=IC50/(1+[Substrate]/Km), 0.5 mM substrate, room temperature, read-out: Tryptase Ki

Compound | Ki [1] | further results
CNC(=O)COc1ccc(CN)cc1C1CCN(C(=O)c2cn(CCOC)c3c(OC(F)(F)F)cccc23)CC1 [Example 28, 2-(4-Aminomethyl-2-{1-[1-(2-methoxy-ethyl)-7-trifluoromethoxy-1H-indole-3-carbonyl]-piperidin-4-yl}-phenoxy)-N-methyl-acetamide hydrochloride] | 538 nM | 
COCCn1cc(C(=O)N2CCC(c3cc(CN)ccc3OCC(=O)N(C)C)CC2)c2cccc(OC(F)(F)F)c21 [Example 29, 2-(4-Aminomethyl-2-{1-[1-(2-methoxy-ethyl)-7-trifluoromethoxy-1H-indole-3-carbonyl]-piperidin-4-yl}-phenoxy)-N,N-dimethyl-acetamide hydrochloride] | 331 nM | 
CN1CCCCC1CCn1cc(C(=O)N2CCC(c3cc(CN)ccc3F)CC2)c2ccccc21 (stereo not drawn) [Example 30, [4-(5-Aminomethyl-2-fluoro-phenyl)-piperidin-1-yl]-{1-[2-(1-methyl-piperidin-2-yl)-ethyl]-1H-indol-3-yl}-methanone dihydrochloride] | 50 nM | 
COCCn1cc(C(=O)N2CCC(c3cc(CN)ccc3OCC(N)=O)CC2)c2cccc(C)c21 [Example 31, 2-(4-Aminomethyl-2-{1-[1-(2-methoxy-ethyl)-7-methyl-1H-indole-3-carbonyl]-piperidin-4-yl}-phenoxy)-acetamide hydrochloride] | 306 nM | 
COCCn1cc(C(=O)N2CCC(c3cc(CN)ccc3OCC(N)=O)CC2)c2cccc(OC(F)(F)F)c21 [Example 32, 2-(4-Aminomethyl-2-{1-[1-(2-methoxy-ethyl)-7-trifluoromethoxy-1H-indole-3-carbonyl]-piperidin-4-yl}-phenoxy)-acetamide hydrochloride] | 1280 nM | 
COCCn1cc(C(=O)N2CCC(c3cc(CN)ccc3OCC(=O)O)CC2)c2cccc(C)c21 [Example 33, (4-Aminomethyl-2-{1-[1-(2-methoxy-ethyl)-7-methyl-1H-indole-3-carbonyl]-piperidin-4-yl}-phenoxy)-acetic acid hydrochloride] |  | Ki (Tryptase Ki, cell prints its own unit uM under a head in nM): > 10000 nM
NCc1ccc(F)c(C2CCN(C(=O)c3cn(CCCF)c4c(OC(F)(F)F)cccc34)CC2)c1 [Example 34, [4-(5-Aminomethyl-2-fluoro-phenyl)-piperidin-1-yl]-[1-(3-fluoro-propyl)-7-trifluoromethoxy-1H-indol-3-yl]-methanone hydrochloride] | 1010 nM | 
NCc1ccc(F)c(C2CCN(C(=O)c3cn(CCc4ccncc4)c4ccccc34)CC2)c1 [Example 35, [4-(5-Aminomethyl-2-fluoro-phenyl)-piperidin-1-yl]-[1-(2-pyridin-4-yl-ethyl)-1H-indol-3-yl]-methanone dihydrochloride] | 8.6 nM | 
CCN(CC)CCn1cc(C(=O)N2CCC(c3cc(CN)ccc3F)CC2)c2ccccc21 [Example 37, [4-(5-Aminomethyl-2-fluoro-phenyl)-piperidin-1-yl]-[1-(2-diethylamino-ethyl)-1H-indol-3-yl]-methanone dihydrochloride] |  | Ki [2]: 87 nM
NCc1ccc(F)c(C2CCN(C(=O)c3cn(CCN4CCCC4)c4ccccc34)CC2)c1 [Example 38, [4-(5-Aminomethyl-2-fluoro-phenyl)-piperidin-1-yl]-[1-(2-pyrrolidin-1-yl-ethyl)-1H-indol-3-yl]-methanone dihydrochloride] |  | Ki [2]: 66 nM
COCCn1cc(C(=O)N2CCC(c3cc(CN)ccc3F)CC2)c2cccc(F)c21 [Example 39, [4-(5-Aminomethyl-2-fluoro-phenyl)-piperidin-1-yl]-[7-fluoro-1-(2-methoxy-ethyl)-1H-indol-3-yl]-methanone hydrochloride] | 10 nM | 
NCc1ccc(F)c(C2CCN(C(=O)c3cn(CCc4ccccn4)c4ccccc34)CC2)c1 [Example 40, [4-(5-Aminomethyl-2-fluoro-phenyl)-piperidin-1-yl]-[1-(2-pyridin-2-yl-ethyl)-1H-indol-3-yl]-methanone dihydrochloride] |  | Ki [2]: 25 nM
NCc1ccc(F)c(C2CCN(C(=O)c3cn(CCN4CCCCC4)c4ccccc34)CC2)c1 [Example 41, [4-(5-Aminomethyl-2-fluoro-phenyl)-piperidin-1-yl]-[1-(2-piperidin-1-yl-ethyl)-1H-indol-3-yl]-methanone dihydrochloride] |  | Ki [2]: 62 nM
COCCn1cc(C(=O)N2CCC(c3cc(CN)ccc3F)CC2)c2c(Cl)cccc21 [Example 42, [4-(5-Aminomethyl-2-fluoro-phenyl)-piperidin-1-yl]-[4-chloro-1-(2-methoxy-ethyl)-1H-indol-3-yl]-methanone] |  | Ki [2]: 123 nM
CCCCn1cc(C(=O)N2CCC(c3cc(CN)ccc3F)CC2)c2cccc(OC(F)(F)F)c21 [Example 43, [4-(5-Aminomethyl-2-fluoro-phenyl)-piperidin-1-yl]-(1-butyl-7-trifluoromethoxy-1H-indol-3-yl)-methanone hydrochloride] | 850 nM | 
COCCn1cc(C(=O)N2CCC(c3cc(CN)ccc3F)CC2)c2c(C)cccc21 [Example 44, [4-(5-Aminomethyl-2-fluoro-phenyl)-piperidin-1-yl]-[1-(2-methoxy-ethyl)-4-methyl-1H-indol-3-yl]-methanone hydrochloride] | 51 nM | 
NCc1ccc(F)c(C2CCN(C(=O)c3cn(CC(F)(F)c4ccccc4)c4ccccc34)CC2)c1 [Example 45, [4-(5-Aminomethyl-2-fluoro-phenyl)-piperidin-1-yl]-[1-(2,2-difluoro-2-phenyl-ethyl)-1H-indol-3-yl]-methanone hydrochloride] | 753 nM | 
CCCCn1cc(C(=O)N2CCC(c3cc(CN)ccc3F)CC2)c2c(OC)cccc21 [Example 46, [4-(5-Aminomethyl-2-fluoro-phenyl)-piperidin-1-yl]-(1-butyl-4-methoxy-1H-indol-3-yl)-methanone hydrochloride] | 94 nM | 
COCCn1cc(C(=O)N2CCC(c3cc(CN)ccc3F)CC2)c2c(OC)cccc21 [Example 47, [4-(5-Aminomethyl-2-fluoro-phenyl)-piperidin-1-yl]-[4-methoxy-1-(2-methoxy-ethyl)-1H-indol-3-yl]-methanone hydrochloride] | 56 nM and 59 nM | 
COCCn1cc(C(=O)N2CCC(c3cc(CN)ccc3F)CC2)c2c(Br)cccc21 [Example 48, [4-(5-Aminomethyl-2-fluoro-phenyl)-piperidin-1-yl]-[4-bromo-1-(2-methoxy-ethyl)-1H-indol-3-yl]-methanone hydrochloride] | 125 nM | 
NCc1ccc(F)c(C2CCN(C(=O)c3cn4c5c(cccc35)OCC4)CC2)c1 [Example 49, [4-(5-Aminomethyl-2-fluoro-phenyl)-piperidin-1-yl]-(2,3-dihydro-pyrrolo[1,2,3-de]-1,4-benzoxazin-6-yl)-methanone hydrochloride] | 291 nM | 
CC(C)(O)CCn1cc(C(=O)N2CCC(c3cc(CN)ccc3F)CC2)c2ccccc21 [Example 50, [4-(5-Aminomethyl-2-fluoro-phenyl)-piperidin-1-yl]-[1-(3-hydroxy-3-methyl-butyl)-1H-indol-3-yl]-methanone hydrochloride] | 241 nM | 
COCCn1cc(C(=O)N2CCC(c3cc(CN)ccc3F)CC2)c2c(F)cccc21 [Example 51, [4-(5-Aminomethyl-2-fluoro-phenyl)-piperidin-1-yl]-[4-fluoro-1-(2-methoxy-ethyl)-1H-indol-3-yl]-methanone hydrochloride] | 54 nM | 
COCCn1cc(C(=O)N2CCC(c3cc(CN)ccc3F)CC2)c2c(C3CC3)cccc21 [Example 52, [4-(5-Aminomethyl-2-fluoro-phenyl)-piperidin-1-yl]-[4-cyclopropyl-1-(2-methoxy-ethyl)-1H-indol-3-yl]-methanone hydrochloride] | 49 nM | 
COCCn1cc(C(=O)N2CCC(c3cc(CN)ccc3F)CC2)c2c(C(F)(F)F)cccc21 [Example 53, [4-(5-Aminomethyl-2-fluoro-phenyl)-piperidin-1-yl]-[1-(2-methoxy-ethyl)-4-trifluoromethyl-1H-indol-3-yl]-methanone hydrochloride] | 289 nM | 
COCCn1cc(C(=O)N2CCC(c3cc(CN)ccc3F)CC2)c2c(OC(F)(F)F)cccc21 [Example 54, [4-(5-Aminomethyl-2-fluoro-phenyl)-piperidin-1-yl]-[1-(2-methoxy-ethyl)-4-trifluoromethoxy-1H-indol-3-yl]-methanone hydrochloride] | 96 nM | 
COCCn1cc(C(=O)N2CCC(c3cc(CN)ccc3F)CC2)c2c(CCC(C)(C)O)cccc21 [Example 55, [4-(5-Aminomethyl-2-fluoro-phenyl)-piperidin-1-yl]-[4-(3-hydroxy-3-methyl-butyl)-1-(2-methoxy-ethyl)-1H-indol-3-yl]-methanone hydrochloride] | 72 nM | 
